Data on 19 compounds can be found in ChEMBL document CHEMBL1156115, “The design of potent and selective inhibitors of DPP-4: optimization of ADME properties by amide replacements” (Bioorg Med Chem Lett, 2009).

The source made the active and inactive calls. The rule behind the calls is not given here. Bounds are passed on as bounds.

One series addresses Dipeptidyl peptidase 2 (Homo sapiens, UniProt Q9UHL4). The experiment in a line: Inhibition of DPP7.
For a further series, the target named is T1, Prolyl endopeptidase (Homo sapiens, UniProt P48147).
T1 sequence (P48147 whole entry): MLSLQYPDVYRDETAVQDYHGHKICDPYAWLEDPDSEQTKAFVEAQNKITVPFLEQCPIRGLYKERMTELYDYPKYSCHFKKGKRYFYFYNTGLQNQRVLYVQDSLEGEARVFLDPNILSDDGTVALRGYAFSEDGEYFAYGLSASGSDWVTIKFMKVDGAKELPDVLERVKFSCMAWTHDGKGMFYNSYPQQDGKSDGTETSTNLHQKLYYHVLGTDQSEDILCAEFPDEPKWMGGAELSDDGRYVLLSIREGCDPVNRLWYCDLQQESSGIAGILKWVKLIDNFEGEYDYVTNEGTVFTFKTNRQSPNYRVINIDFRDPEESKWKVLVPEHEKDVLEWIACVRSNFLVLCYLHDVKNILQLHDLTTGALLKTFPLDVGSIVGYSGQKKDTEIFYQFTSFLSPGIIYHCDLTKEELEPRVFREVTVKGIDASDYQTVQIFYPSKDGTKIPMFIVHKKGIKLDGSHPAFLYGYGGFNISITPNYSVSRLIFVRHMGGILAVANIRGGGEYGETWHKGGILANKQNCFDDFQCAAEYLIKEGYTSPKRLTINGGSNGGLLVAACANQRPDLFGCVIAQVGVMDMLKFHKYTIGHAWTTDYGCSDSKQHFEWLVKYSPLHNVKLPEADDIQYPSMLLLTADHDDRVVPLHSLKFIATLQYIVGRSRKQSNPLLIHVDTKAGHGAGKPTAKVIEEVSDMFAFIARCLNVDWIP
The experiment in a line: Inhibition of human POP expressed in Escherichia coli after 30 mins by continuous fluorescent assay.

Series [1] is described as follows: (§1) Apparent permeability from basolateral to apical side of human Caco-2 cells. Type of series: ADME, cell-based. (Passage across Caco-2 layers is used to estimate intestinal permeability.)
A further series deals with Mus musculus. The experiment in a line: Antihyperglycemic activity in obese mouse diabetic model assessed as reduction in peak glucose excursion at 3 mg/kg, po administered 30 mins before glucose challenge by oral glucose tolerance test. Type of series: functional, organism-based. More on the design: dose 3 mg/kg.
The nature of series [2]: Half life in Wistar rat at 1 mg/kg, iv or 3 mg/kg, po. It is filed as ADME, organism-based. The settings on record: in vivo.
Series [3] is described as follows: Apparent volume of distribution in Wistar rat at 1 mg/kg, iv or 3 mg/kg, po. The settings on record: in vivo, read-out: Vz. Type of series: ADME, organism-based.
Series [4] in a line: (§2) Apparent permeability from apical to basolateral side of human Caco-2 cells. It is filed as ADME, cell-based.
Series [5] can be described thus: Distribution coefficient, log D of the compound. To be noted: octanol/water. It is filed as physicochemical.
Series [6] has as its target Dipeptidyl peptidase 4 (Mus musculus) (UniProt P28843). The experiment in a line: Inhibition of DPP4 in mouse plasma up to 60 mins. It is filed as cell-free.
For series [7] the target is unchanged. Kind of series: Inhibition of DPP4 in mouse plasma up to 180 mins. It is filed as cell-free.
A short description of series [8]: Half life in rat liver microsomes at 3 uM. Type of series: ADME, Microsome. (In general: Microsomes from liver hold many membrane-bound enzymes, among them those of drug oxidation.)
A short description of series [9]: Clearance in Wistar rat at 1 mg/kg, iv or 3 mg/kg, po. Type of series: ADME, organism-based. The settings on record: in vivo.
Series [10] in a line: Half life in human liver microsomes at 3 uM. Type of series: ADME, Microsome.
A short description of series [11]: Oral bioavailability in Wistar rat at 3 mg/kg. Type of series: ADME, organism-based. The settings on record: in vivo.
Series [12] has as its system Caco-2. The series is described as §1. It is filed as ADME, cell-based.
In series [13] the test system is Caco-2. The series is described as §2. Type of series: ADME, cell-based.

Sequence of Dipeptidyl peptidase 4 (Mus musculus) (P28843 whole entry, looked up): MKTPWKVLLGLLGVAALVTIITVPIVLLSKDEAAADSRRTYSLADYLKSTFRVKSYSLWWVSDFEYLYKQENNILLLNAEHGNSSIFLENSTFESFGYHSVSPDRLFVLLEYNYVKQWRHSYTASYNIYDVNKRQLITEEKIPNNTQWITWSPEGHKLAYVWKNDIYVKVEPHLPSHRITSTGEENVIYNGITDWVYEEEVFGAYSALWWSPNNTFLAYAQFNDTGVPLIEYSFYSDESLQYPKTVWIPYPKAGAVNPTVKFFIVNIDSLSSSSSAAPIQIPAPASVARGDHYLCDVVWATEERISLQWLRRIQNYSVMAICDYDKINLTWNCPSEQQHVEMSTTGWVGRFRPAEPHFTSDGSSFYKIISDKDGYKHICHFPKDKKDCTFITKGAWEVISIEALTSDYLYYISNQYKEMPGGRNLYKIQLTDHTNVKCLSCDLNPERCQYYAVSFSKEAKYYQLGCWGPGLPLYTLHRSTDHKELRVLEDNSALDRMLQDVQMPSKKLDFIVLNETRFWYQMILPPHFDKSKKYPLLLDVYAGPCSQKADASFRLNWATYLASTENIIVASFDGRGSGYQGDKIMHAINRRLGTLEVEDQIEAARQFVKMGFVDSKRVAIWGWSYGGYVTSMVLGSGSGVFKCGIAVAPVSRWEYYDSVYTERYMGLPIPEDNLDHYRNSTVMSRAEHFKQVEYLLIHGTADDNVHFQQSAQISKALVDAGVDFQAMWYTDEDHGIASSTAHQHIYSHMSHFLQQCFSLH

Usually IC50 stands for the concentration at which inhibition is half-maximal. Read a low IC50 as higher potency. Consider `N[C@@H](CC(=O)N1CCC[C@H]1c1nc(N2CCCC2)no1)Cc1cc(F)c(F)cc1F`, for which the concentration for half-maximal inhibition (IC50) against Dipeptidyl peptidase 2 was 3.2 µM; against Prolyl endopeptidase it was greater than 100 µM.

For `CC1(c2nc([C@@H]3CCCN3C(=O)C[C@H](N)Cc3cc(F)c(F)cc3F)no2)COC1`, the IC50 against Dipeptidyl peptidase 2 is 38 µM; on Prolyl endopeptidase it was greater than 100 µM.

Consider `N[C@@H](CC(=O)N1CCC[C@H]1c1nc(C2(C(F)(F)F)CC2)no1)Cc1cc(F)c(F)cc1F`, for which the IC50 on Dipeptidyl peptidase 2 worked out at 2.8 µM. That is a single-digit micromolar value.

One may read the Papp B→A as how fast a substance crosses the layer from the basolateral side. What is called half-life is the time in which the quantity being followed falls by half. High values mean slow loss, low ones fast loss. The Papp A→B is the apparent permeability from the apical to the basolateral side of a cell layer. By logD is commonly meant the decadic logarithm of the distribution of all forms, ionised or not, between an organic phase and buffer at a given pH. In general, inhibition refers to the relative decrease from the control value, in per cent. Lower therefore signals a weak effect. As usually defined, the bioavailability is dose-corrected exposure relative to a reference, in per cent. For `N[C@@H](CC(=O)N1CCC[C@H]1c1nc(-c2ncc(F)cc2F)no1)Cc1cc(F)c(F)cc1F`, in series [1], the Papp B→A was 73 ×10⁻⁶ cm/s. In addition, the outcome in the series with Mus musculus was Active. In addition, the IC50 against Dipeptidyl peptidase 2 is 2 µM; on Prolyl endopeptidase, greater than 100 µM. Further, the half-life in [2] was 2.4 h. Also, in series [3], the Vd is 17.7 L/kg. The Papp A→B in [4] is 3 ×10⁻⁶ cm/s. Further, the logD in series [5] came to 1.32. Besides, the values for the inhibition in [6] and in series [7] were 79% and 64%, respectively. Besides, the half-life at 3 µM in [8] and in [10] was greater than 2 h in each case. The clearance in series [9] was 100 mL/min/kg. In series [11], this compound registered a bioavailability of 56%.

As to `N[C@@H](CC(=O)N1CCC[C@H]1c1noc(C2CC2)n1)Cc1cc(F)c(F)cc1F`, the figures for the IC50 against Dipeptidyl peptidase 2 and against Prolyl endopeptidase were 11 µM and greater than 100 µM, respectively.

Take `N[C@@H](CC(=O)N1CCC[C@H]1c1nc(C2CC2)no1)Cc1cc(F)c(F)cc1F`: the Papp B→A in [1] worked out at 52 ×10⁻⁶ cm/s. At Dipeptidyl peptidase 2, this compound came in with an IC50 of 3.8 µM. For the same compound, the apical-to-basolateral permeability (Papp A→B) in series [4] was 21 ×10⁻⁶ cm/s. This compound registered a logD in series [5] of 1.61. The half-life at 3 µM in series [8] was 1.18 h; in series [10], greater than 2 h.

For `CC(C)(F)c1nc([C@@H]2CCCN2C(=O)C[C@H](N)Cc2cc(F)c(F)cc2F)no1`, the Papp B→A in [1] was found to be 62 ×10⁻⁶ cm/s. Further, the result in the series with Mus musculus was Active. Besides, the values for the IC50 at Dipeptidyl peptidase 2 and against Prolyl endopeptidase were 16 µM and greater than 100 µM, respectively. In series [2], the half-life is 1 h. Moreover, in series [3], the Vd was 2.9 L/kg. Also, in series [4], the apparent permeability from apical to basolateral (Papp A→B) worked out at 14 ×10⁻⁶ cm/s. In addition, in series [5], the logD came to 1.46. The inhibition in [6] was found to be 70%; in [7], 56%. Further, the half-life at 3 µM in series [8] is 1.7 h; in series [10], greater than 2 h. In series [9], the clearance is 31.7 mL/min/kg. Moreover, in [11], the bioavailability is 100%.

`N[C@@H](CC(=O)N1CCC[C@H]1c1noc(C2(O)CC2)n1)Cc1cc(F)c(F)cc1F` registered an IC50 at Dipeptidyl peptidase 2 of 23 µM. This counts as double-digit micromolar.

What is called Papp is the rate of passage across a membrane or cell layer, normalised by area and donor concentration. As to `CS(=O)(=O)N1CC(c2noc([C@@H]3CCCN3C(=O)C[C@H](N)Cc3cc(F)c(F)cc3F)n2)C1`, the Papp in the series with Caco-2 [12] is 28 ×10⁻⁶ cm/s; in the series with Caco-2 [13], 0.15 ×10⁻⁶ cm/s. Further, half-maximal inhibition at Dipeptidyl peptidase 2 (IC50) required 3.8 µM. In [5], this compound came in with a log distribution coefficient (logD) of 0.96. Moreover, the half-life at 3 µM in series [8] and in series [10] was greater than 2 h throughout.

`N[C@@H](CC(=O)N1CCC[C@H]1c1noc(C2(F)CC2)n1)Cc1cc(F)c(F)cc1F` gave an IC50 on Dipeptidyl peptidase 2 of 14 µM.

On to `N[C@@H](CC(=O)N1CCC[C@H]1c1nc(-c2cnccn2)no1)Cc1cc(F)c(F)cc1F`, for which the IC50 against Dipeptidyl peptidase 2 was 2.3 µM; against Prolyl endopeptidase, greater than 100 µM.

As for `N[C@@H](CC(=O)N1CCC[C@H]1c1nc(CC2CC2)no1)Cc1cc(F)c(F)cc1F`, the values for the IC50 on Dipeptidyl peptidase 2 and at Prolyl endopeptidase were 4 µM and greater than 100 µM, respectively.

At Dipeptidyl peptidase 2, `N[C@@H](CC(=O)N1CCC[C@H]1c1nc(-c2ccccn2)no1)Cc1cc(F)c(F)cc1F` gave an IC50 of 0.886 µM.

On to `N[C@@H](CC(=O)N1CCC[C@H]1c1noc(C2(C(F)(F)F)CC2)n1)Cc1cc(F)c(F)cc1F`, for which the Papp B→A in [1] was found to be 49 ×10⁻⁶ cm/s. Besides, at Dipeptidyl peptidase 2, the IC50 worked out at 10 µM. The half-life in [2] was 2.3 h. Further, the Vd in series [3] turned out to be 17.5 L/kg. Moreover, the apparent permeability from apical to basolateral (Papp A→B) in [4] is 23 ×10⁻⁶ cm/s. In addition, the logD in series [5] is 2.16. Moreover, the half-life at 3 µM was 1 h in [8] and greater than 2 h in series [10]. In addition, the clearance in [9] was 115 mL/min/kg. Moreover, in [11], the bioavailability worked out at 43%.

In turn, `N[C@@H](CC(=O)N1CCC[C@H]1c1nc(-c2ncccn2)no1)Cc1cc(F)c(F)cc1F` gave an IC50 against Dipeptidyl peptidase 2 of 2.2 µM.

`CC(C)(C)c1nc([C@@H]2CCCN2C(=O)C[C@H](N)Cc2cc(F)c(F)cc2F)no1`: the values for the IC50 at Dipeptidyl peptidase 2 and on Prolyl endopeptidase were 36 µM and greater than 100 µM, respectively.

Regarding `CC(=O)N1CC(c2noc([C@@H]3CCCN3C(=O)C[C@H](N)Cc3cc(F)c(F)cc3F)n2)C1`, the IC50 against Dipeptidyl peptidase 2 is 17 µM.

For `CC(C)(C)c1noc([C@@H]2CCCN2C(=O)C[C@H](N)Cc2cc(F)c(F)cc2F)n1`, in series [1], the Papp B→A worked out at 49 ×10⁻⁶ cm/s. Further, the IC50 on Dipeptidyl peptidase 2 was 7 µM; against Prolyl endopeptidase, 39 µM. In [2], this compound had a half-life of 1.6 h. Also, the Vd in [3] was determined as 20.5 L/kg. For the same compound, in series [4], the Papp A→B worked out at 20 ×10⁻⁶ cm/s. In series [5], this compound had a logD of 1.85. Besides, the results for the half-life at 3 µM in [8] and in series [10] were 0.133 h and 1.33 h, respectively. Moreover, the clearance in [9] is 120 mL/min/kg. Moreover, the bioavailability in [11] turned out to be 3%.

Turning to `N[C@@H](CC(=O)N1CCC[C@H]1c1nc(N2CCOCC2)no1)Cc1cc(F)c(F)cc1F`, the results for the IC50 at Dipeptidyl peptidase 2 and against Prolyl endopeptidase were 5.6 µM and greater than 100 µM, respectively.
